Values quoted from earlier work as cited in US20120046321A1, “METHODS OF TREATING ATRIAL FIBRILLATION WITH P38 INHIBITOR COMPOUNDS” (INTERMUNE, INC., priority 2005, published 2012).

Tested on: canine model, VTP-induced CHF
Conditions: Li et al., Circulation 2001; cited from earlier work

## CCOC(=O)[C@H](CCc1ccccc1)N[C@@H](C)C(=O)N1CCC[C@H]1C(=O)O [enalapril]
  Ang II concentration: reduction
  Arrhythmogenic atrial remodeling: less
  ERK activation: reduction
